Where two headings read alike, the source gives them in different places.

Here are results for two compounds from patent publication US12714685B2, “Drug combination and its use in the treatment of cancer” (priority 2020, dated 2026).

The subject of one data set is LN-18 cells. The data set can be described thus: In vitro cytotoxicity (LDH release assay) on LN-18 glioma cells. The settings on record: for IC50: Homo sapiens, LN-18, 24 h. An excerpt:
(§1) Two colorimetric assays were established to monitor cytotoxicity in response to the tested drugs, one measuring the release of lactate dehydrogenase (LDH) from cells, a well-established marker for cell toxicity, and the other measuring the activity of mitochondrial […], an indicator of cell viability, by the reduction of the soluble tetrazolium dye MTT. […] Cells were also monitored by direct microscopic observation. Controls included cells treated with medium without drug and cells treated with Camptothesin, a known cytotoxic agent, as positive control. Incubation with drug concentrations was carried out for 24 hours at 37° C.
(§2) DAB was tested in vitro under ideal conditions in absence of any competing physiological amino acid allowing low concentrations of 0.5, 1, 2, 3, 4, 5, 6, 8, 12, and 16 mM.
(§3) Prazosin was tested at concentrations of 0.1, 0.5, 1, 2, 5, 10, 20, 30 and 50 μM.
DAB was used at concentrations of 1, 2 and 4 mM. Each of these concentrations was tested alone or in combination with 1, 2 or 4 μM of Prazosin, i.e. the combinations tested were the following: • 1 mM DAB+1 μM Prazosin • 1 mM DAB+2 μM Prazosin • 1 mM DAB+4 μM Prazosin • 2 mM DAB+1 μM Prazosin • 2 mM DAB+2 μM Prazosin • 2 mM DAB+4 μM Prazosin • 4 mM DAB+1 μM Prazosin • 4 mM DAB+2 μM Prazosin • 4 mM DAB+4 μM Prazosin
In general terms: Release of lactate dehydrogenase indicates damage to the cell membrane.

The test system of another data set is HMC3 cells. The data set can be described thus: In vitro cytotoxicity (LDH release assay) on non-malignant HMC3 cells. To be noted: 24 hours at 37° C. It counts as cell-based, human.
Description: as §1, §2, §3

The test system of another data set is glioblastoma. To be noted: mouse xenografts; cited from earlier work.
A further data set has as its system human glioma cells. To be noted: cited from earlier work.
The conditions of data set [1]: two clinical studies, small patient series; cited from earlier work.
Data set [2] in a line: Solubility in aqueous media.

Usually IC50 stands for the midpoint of a concentration-inhibition curve. As for `COc1cc2nc(N3CCN(C(=O)c4ccco4)CC3)nc(N)c2cc1OC` [Prazosin], in the data set with LN-18 cells, the “cytotoxic effect against glioma cell line LN-18 (in words)” value was “strong cytotoxic effect”. In the data set on LN-18 cells (read-out: IC50, cytotoxic effect against glioma LN-18 line), the IC50 amounted to 3.4 µM. For the same compound, in the data set with HMC3 cells, the “IC50 against non-malignant HMC3 cells” value is recorded as “no IC50 could be determined” and the “toxicity towards non-malignant HMC3 cells (in words)” value is on record as “little cytotoxicity”. The glioblastoma growth result in the data set on glioblastoma is reported as “inhibit glioblastoma growth”.
Take `NCC[C@H](N)C(=O)O` [DAB, L-2,4 diaminobutyric acid]: the “cytotoxic effect against glioma cell line LN-18 (in words)” value in the data set on LN-18 cells (24 hours at 37° C.) was “strong cytotoxic effect”. For the same compound, the half-maximal inhibitory concentration (IC50) in the data set on LN-18 cells (read-out: IC50, cytotoxic effect against glioma cell line LN-18) was found to be 3800 µM. For the same compound, in the data set with HMC3 cells, the “IC50 against non-malignant HMC3 cells” value is listed as “no IC50 could be determined” and the “toxicity towards non-malignant HMC3 cells (in words)” value was “weak toxicity”. Besides, the “antitumoral activity in vitro” value in the data set on human glioma cells was “antitumoral activity”. The clinical benefit entry in data set [1] is on record as “failed to demonstrate significant clinical benefit”. For the same compound, the “solubility in aqueous media” value in data set [2] was “soluble”.
